Patent US20130317092A1 (priority 2007, published 2013)

How the values were obtained:
TBP = TBP transcript in human PBMC (real-time RT-PCR); assay type: cell-based
CD54 and CD40 = settings: cited from earlier work
ASF/SF2 = assay: Splicing factor ASF/SF2 in human PBMC (real-time RT-PCR); assay type: cell-based
AChmiRNA = AChmiRNA expression in human PBMC (quantitative RT-PCR); assay type: cell-based
BDP1 = BDP1 transcript in human PBMC (real-time RT-PCR); assay type: cell-based
macrophage miRNAs = assay: Spotted microarray miRNA profile of primary human macrophages; assay type: cell-based
Description: Macrophages were isolated from buffy coats from healthy donors, underwent pooling that elicited mixed leukocyte response (MLR) and subjected in vitro to several distinct agents or combinations thereof, some known to elicit macrophage activation (listed in Table 2, hereinbelow).
The mirVana (Ambion, Austin, Tex.) oligonucleotide set was used to construct the in-house array. The microarray carried 200 spotted probes complementary to known human and mouse miRNAs. To compose the array, the mirVana probeset was dissolved in 3×SSC to a final concentration of […], and printed on Ultragaps slides (Corning, Corning, N.Y.), using the MicroGrid spotter (Genomic Solutions, Holliston, Mass.). The array layout contained 12 subgrids, each composed of 11 rows and 12 columns. Each oligonucleotide was spotted 6 times on the array. The experiments were designed for comparison of two samples. Data was therefore always relative rather than absolute. In these experiments, a “reference design” (Churchill, 2002, Nature genetics, 32, 490-495) was used, in which RNA from cells or tissues is compared. In addition, dye-swapping tests were performed, aimed to exclude dye-specific labeling differences (Dombkowski et al., 2004, FEBS Lett, 560, 120-124). Labeling was performed using the CyDye reactive dye pack (Amersham, NSW, Australia), as instructed. Pre-hybridization was in pre-heated S×SSC, 1% BSA, 0.1% SDS solution, at 42° C. for 45 min. Cy3 and Cy5-labeled fragmented RNA (3 ug each) were added to the hybridization solution (3×SSC, 0.1% SDS, 10 μg polyA, 20 μg tRNA), heated at 95° C. for 4 minutes for eliminating secondary structures and applied to the slides in hybridization chambers (Corning, N.Y., USA) for 15 h at 64° C. Hybridized slides were successively washed in: 1×SSC, 0.1% SDS (5 min); 0.1×SSC, 0.1% SDS (5 min) and 0.1×SSC (3×1.5 min) and were dried by centrifugation (˜1000 g).
This was adapted from (Ben-Ari S, et al., J. Neurochem. 2006 April; 97 Suppl 1:24-34.) Briefly, an Affymetrix 428 Array Scanner was used at the maximum gain setting, at the wavelengths of 532 nm and 650 nm Scans were controlled by the “Jaguar” software (Affymetrix, Calif., USA), saved as TIFF files and exported to the “Imagene” program (Biodiscovery Inc, CA, USA) to define the spots, convert the intensity signals into numbers and calculate quality parameters such as “shape regularity”, “empty spot” etc. Data normalization, exclusion of unreliable spots and combining the information from all 4 slides were performed in an in-house Matlab program. First, median background was subtracted from the median signal intensity, to normalize background noises. Background area was defined as a circle of 5 pixels diameter separated from the signal area by 4 pixels. […]. Spot quality was examined according to pre-defined Imagene's parameters, standard deviation of pixels intensity in each spot etc. Spots with intensities below the threshold derived from the negative control spots or with saturated pixel values were excluded. The Cy3 and Cy5 signal intensities of each spot were normalized to the mean Cy3 and Cy5 intensities in the slide. For each spot, an initial Cy3/Cy5 ratio has been calculated, and was transformed to a log 2 basis. This value was designated LR (log 2 ratio). […]. Then, results from all valid spots (up to 6) representing the same oligonucleotide were combined. Probes with less than 3 valid spots were excluded, and median and mean LR were calculated.
Covariance between treatments was calculated in OpenOffice 1.1 for Mac OS X, using the entire miRNA collection represented on the chip (for signals that failed the MatLab analysis, a Median LR value of 0 was assigned).
The mirVana oligo set (Ambion, Austin, Tex.; Catalog number 1564V1) was used to construct our in-house array with >200 spotted probes complementary to known human and mouse miRs. […]

AChE-S mRNA = AChE-S mRNA by QRT-PCR in transfected primary human macrophages; assay type: cell-based; settings: primary human macrophages transfected with LNA-modified oligo
Description: (§1) Primary human macrophages obtained from donors using methods which are well known in the art.
(§2) anti132 is set forth in CG+ACC+ATG+GCT+GTA+GAC+TGT+TA (SEQ ID NO: 109), anti182 is set forth in 5′T+AgT+Tgg+CAA+gTC+TAg+AAC+CA3′(SEQ ID NO: 110), whereby LNA modification is marked as + before the modified nucleotide.
(§3) RT was performed using SuperScript III kit reagents (Invitrogen) as per kit instructions, and ABI-7900HT (Applied Biosystems) equipped with dedicated software (ver. 2) was used to amplify the resulting cDNA template (SYBR Green I RNA amplification kit, Roche). Triplicate values of each treatment were normalized to β-actin mRNA.

[1] = tested on: Inducible Nitric Oxide Synthetase (iNOS); assay: iNOS by QRT-PCR in transfected primary human macrophages; assay type: cell-based; settings: primary human macrophages transfected with LNA-modified oligo
Description: as §1, §3

[2] = tested on: 3′UTR fragment of human AChE cDNA; assay: Dot blot hybridization of LNA-modified oligos with PCR-amplified AChE 3′UTR; assay type: binding; settings: 5′-32P-labeled LNA-modified oligos
Description: The common AChE 3′-UTR sequence was obtained from AY750146 (all mRNA sequence beginning from stop codon). 3′-UTR of AChE was amplified by RT-PCR using Promega reagents and total RNA isolated with QIAGEN RNeasy kit from post-mortem human brain, with primers including XhoI, NotI restriction sites in 5′ and 3′ primer, respectively. Primer sequences used were: (5′): […], (3′) (SEQ ID NO: 111): […] (SEQ ID NO: 112). Annealing temperature of 57° C. was used. PCR product was purified with QIAGEN QiaQuick kit, size of fragment verified in agarose gel, spotted on a dry HyBond nylon membrane in 2 ul drops, cross-linked to the membrane using 1200 mJ UV burst, and baked for 1 hr at 80° C. Membrane was blocked for at least 2 hours in solution containing 50% deionized formamide, 5×SSPE, 0.5% SDS, 5×Denhardt's Solution at 50° C.; and hybridized o/night in same conditions with 5′-32P-labeled probes mimicking miRs wholly or with mismatches as indicated, washed 4 times at 37° C. in 3×SSPE, 5% SDS, 10×Denhardt's solution; once at 42° C. in 1×SSPE, 1% SDS; exposed over up to 3 days to a PhosphorImager (Molecular Dynamics/GE Healthcare) plate, and signal quantified using FujiFilm's ImageGauge 4 software.

RAW 264.7 cells = assay: NO production of LPS-challenged RAW 264.7 cells transfected with miR mimics; assay type: cell-based, murine
Description: Murine RAW 264.7 macrophage-derived cell line known to express TLR4 and respond to endotoxin by production of pro-inflammatory mediators such as Nitric Oxide (NO), prostaglandins, and cytokines as ILE IL6, and TNFalpha were used (described in the preceding examples e.g., Examples 7 and 8). Cells were grown in 5 ml flasks in a humidified atmosphere in Dulbecco's modified Eagle's medium (DMEM, Biological Industries) supplemented with 10% fetal calf serum (FCS) and 2 mM L-glutamine at 37° C., 5% CO2.
Griess method was used to determine NO2 levels in medium in which macrophages had been cultured. 100 μl of each sample+100 μl of Griess reagent (1% sulfanilamide/0.1% naphthylethylenediamine dihydrochloride/2.5% H3PO4)—were incubated 10-20 min at room temperature. Read absorbance at 546 nm in micro-ELISA reader.
miR 132 and 182* (SEQ ID NOs: 54 and 93, respectively) were LNA modified (products are designated with SEQ ID NOs. 107 and 108, respectively). A locked nucleic acid (LNA), often referred to as inaccessible RNA, is a modified RNA. Ribose moiety of LNA nucleotide is modified with an extra bridge connecting 2′ and 4′ carbons. The bridge “locks” the ribose in 3′-endo structural conformation, which is often found in A-form of DNA or RNA. LNA nucleotides can be mixed with DNA or RNA bases in the oligonucleotide whenever desired. The locked ribose conformation enhances base stacking and backbone pre-organization.
electroporation and lipofection were used for cell transfection.
Oligos containing LNA modifications on every third base (Table 4) were obtained from Sigma-Proligo. Transfection was performed with Lipofectamine 2000 (Invitrogen, Carlsbad, Calif.) using 3 μg of oligo per sample. Briefly, cells were brought to 80%-90% confluence at the time of transfection. For each transfection sample, 3 μg oligo were diluted in 1 ml of RPMI-1640 while the lipofectamine reagent was diluted in 1 ml of RPMI-1640. After 5 minutes the diluted oligo and lipofectamine were combined and incubated for 20 minutes. This was added to the cells within the 75 ml flask, containing 6 ml RPMI complete+GM-CSF ([…] final oligo concentration). […]
To determine cell viability 40 μl of thiazolyl blue tetrazolium bromide (MTT) reagent (Sigma) at 5 mg/ml was added per sample well, incubated for 30 minutes at 37° C. Medium was removed, 400 μl of DMSO was added per well and absorbance read at 550 nm Griess method was used to determine NO2 levels in conditioned medium from macrophage cultures. […] Absorbance was read at 546 nm in a micro-ELISA reader. TNF-α, IL-6 levels were measured by Enzyme-Linked Immunosorbent Assay (ELISA) according to manufacturer's procedures (R&D Systems kits, MTA00, M6000B, respectively). All absorbance results were normalized using standard curves. […]

AChE-R mRNA = AChE-R mRNA by QRT-PCR in transfected primary human macrophages; assay type: cell-based; settings: primary human macrophages transfected with LNA-modified oligo
Description: as §1, §2, §3

Substance: CpG ODN 2006
- TBP transcript (TBP): suppressed
- expression of CD54 and CD40 (CD54 and CD40): enhanced expression of CD54 and CD40
- splicing factor ASF/SF2 levels (ASF/SF2): reduced levels
- AChmiRNA expression (AChmiRNA): suppressed
- BDP1 transcript (BDP1): suppressed
- similarity of effects on the miRNA profile (covariance) (macrophage miRNAs): invoke the closest effects on the miRNA profile
- miR-132 expression (spotted microarray) (macrophage miRNAs; 24 h, 1 μg/ml LPS or ODN 2006 1 uM): consistently being up-regulated
- extent of change in miRNA expression (miRNAs beyond median LR=0.25) (macrophage miRNAs; LPS 1 μg/ml, CpG 1 μM, EN101 1 μM): caused the greatest change
- miR-17-5p expression (macrophage miRNAs; spotted array): down-regulated by CpG alone
- miR-30a-3p and miR-372 expression (macrophage miRNAs; spotted array): consistently down-regulated
- miRNAs down-regulated (macrophage miRNAs; spotted array): miR-9-1*, 26a-1, 27a, 33, 93, 140, 145, 185, 221, and 298
- miRNAs up-regulated (macrophage miRNAs; spotted array): miR-183, 292-3p, 302c, 361, and 381

Substance: anti-132: LNA-modified reverse-complementary oligo CG+ACC+ATG+GCT+GTA+GAC+TGT+TA (CGACCATGGCTGTAGACTGTTA; LNA at 3, 6, 9, 12, 15, 18, 21, other sugars and backbone not given here)
- AChE-S mRNA levels (AChE-S mRNA): increase in mRNA levels, albeit of the AChE-S variant alone
- iNOS expression [1]: up-regulation of Inducible Nitric Oxide Synthetase (iNOS)

Substance: miR-132 mimic: LNA-modified oligo mimicking miR-132: TA+ACA+GTC+TAC+AGC+CAT+GGT+CG (TAACAGTCTACAGCCATGGTCG; LNA at 3, 6, 9, 12, 15, 18, 21, other sugars and backbone not given here)
- binding to PCR-amplified AChE 3′UTR (dot blot signal) [2]: significant binding to 20 ng doses of PCR product
- activation of macrophage cell lines by LPS (NO production) after transfection (RAW 264.7 cells; LPS-exposed RAW-264.7 cells transfected with oligo (Example 13)): significantly attenuate the activation of macrophage cell lines by LPS
- endotoxin response (NO production) after transfection (RAW 264.7 cells; RAW 264.7 cells transfected or electroporated, then endotoxin challenge (Example 11)): significantly attenuate endotoxin response
- AChE-S mRNA levels (AChE-S mRNA): dramatic decline
- AChE-R mRNA levels (AChE-R mRNA): dramatic decline
